The assay has as its target T1, recombinant truncated stromelysin (human sequence) (Homo sapiens, UniProt P08254).
T1 construct: made in house; host or cells: E. coli
Nature of the assay: Determination of Stromelysin Inhibition. The settings on record: recombinant truncated human stromelysin produced in E. coli. Format: biochemical. The procedure:
Determination of Stromelysin Inhibition
The efficacy of the compounds of this invention as matrix metalloproteinase inhibitors was determined by measuring the inhibition of stromelysin. The inhibition of stromelysin by the compounds of this invention was determined as follows: recombinant truncated stromelysin (human sequence) produced in E. coli was prepared by expression and purification of the protein as described by Ye et al, Biochemistry, 1992, 31, 11231-11235. The IC50 values were determined as described in Steiman et al, Bioorganic and Medicinal Chemistry Letters, (1998), 8, 2087-2092 (footnote 13).
T1 sequence (P08254 100-273 limits assumed): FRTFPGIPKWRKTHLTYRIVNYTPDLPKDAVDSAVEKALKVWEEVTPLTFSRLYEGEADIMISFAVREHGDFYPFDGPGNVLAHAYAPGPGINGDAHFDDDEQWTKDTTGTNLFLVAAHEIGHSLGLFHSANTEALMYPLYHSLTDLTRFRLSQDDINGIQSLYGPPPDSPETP
As a reminder, the IC50 is the concentration that gives 50% inhibition. For `COc1ccc(-c2ccc(S(=O)(=O)CCOc3ccc4ccccc4c3C(=O)NO)cc2)cc1` [Example 7, N-hydroxy-2-[2-[(4'-methoxy[1,1'-biphenyl]-4-vl)sulfonyl]ethoxy]-1-naphthalenecarboxamide], the IC50 came to 0.46 µM.

In the case of `O=C(NO)c1c(CCOc2ccc(-c3ccc(Cl)cc3)cc2)ccc2ccccc12` [Example 1, 2-[2-[(4'-chloro[1,1'-biphenvyl]-4-vl)oxy]eyl]-N-hydroxy-1-naphthalenecarboxamide], the IC50 came to 0.64 µM.

As to `O=C(NO)c1c(CCS(=O)(=O)c2ccc(-c3ccc(Cl)cc3)cc2)ccc2ccccc12` [Example 8, 2-[2-[(4'-chloro[1,1'-biphenyl]-4-yl)sulfonyl]ethyl]-N-hydroxy-1-naphthalenecarboxamide], the IC50 was 3.7 µM.

Consider `N#CCc1cccc(-c2ccc(S(=O)(=O)CCOc3ccc4ccccc4c3C(=O)NO)cc2)c1` [Example 13], for which the IC50 came to 0.062 µM.

With `COc1ccc(-c2ccc(C(=O)CCc3ccc4ccccc4c3C(=O)NO)cc2)cc1` [Example 12, N-hydroxy-2-[3-(4'-methoxy[1,1'-biphenyl]-4-yl)-3-oxopropyl]-1-naphthalenecarboxamide], the IC50 was 0.45 µM.

As to `O=C(NO)c1c(OCCS(=O)(=O)c2ccc(-c3ccc(Cl)cc3)cc2)ccc2ccccc12` [Example 6, 2-[[2-(4'-chloro[1,1'-biphenyl]-4-yl)sulfonyl]ethoxy]-N-hydroxy-1-naphthalenecarboxamide], the concentration for half-maximal inhibition (IC50) stood at 0.67 µM.

As to `COc1ccc(-c2ccc(C(=O)CCCc3ccc4ccccc4c3C(=O)NO)cc2)cc1` [Example 11, N-hydroxy-2-[4-(4'-methoxy[1,1'-biphenyl]-4-yl)-4-oxobutyl]-1-naphthalenecarboxamide], the IC50 is 1.5 µM.

Turning to `COc1ccc(-c2ccc(S(=O)(=O)CCCc3ccc4ccccc4c3C(=O)NO)cc2)cc1` [Example 10, N-hydroxy-2-[3-[(4'-methoxy[1,1'-biphenyl]-4-yl)sulfonyl]propyl]-1-naphthalenecarboxamide], the IC50 worked out at 0.4 µM.

For `O=C(NO)c1c(CNS(=O)(=O)c2ccc(-c3ccc(OC(F)(F)F)cc3)cc2)ccc2ccccc12` [Example 9], the IC50 came out at 0.69 µM.
